# Reference: US20240350493A1 (Kadmon Corporation, LLC, priority 2022, published 2024)
# “Also recorded” adds a separate entry of the source. Where two headings read alike, the source gives them in different places. Marks after values point to notes of the source that are not given here.
# Legend:
# P-gp = P-gp (Homo sapiens, UniProt P08183); experiment: transporter substrate, in vitro; assay type: in vitro ADME
# UGT1A9 = UGT1A9 (Homo sapiens, UniProt O60656); experiment: enzyme inhibition, in vitro; assay type: in vitro ADME
# Sequence of UGT1A9 (O60656 26-530): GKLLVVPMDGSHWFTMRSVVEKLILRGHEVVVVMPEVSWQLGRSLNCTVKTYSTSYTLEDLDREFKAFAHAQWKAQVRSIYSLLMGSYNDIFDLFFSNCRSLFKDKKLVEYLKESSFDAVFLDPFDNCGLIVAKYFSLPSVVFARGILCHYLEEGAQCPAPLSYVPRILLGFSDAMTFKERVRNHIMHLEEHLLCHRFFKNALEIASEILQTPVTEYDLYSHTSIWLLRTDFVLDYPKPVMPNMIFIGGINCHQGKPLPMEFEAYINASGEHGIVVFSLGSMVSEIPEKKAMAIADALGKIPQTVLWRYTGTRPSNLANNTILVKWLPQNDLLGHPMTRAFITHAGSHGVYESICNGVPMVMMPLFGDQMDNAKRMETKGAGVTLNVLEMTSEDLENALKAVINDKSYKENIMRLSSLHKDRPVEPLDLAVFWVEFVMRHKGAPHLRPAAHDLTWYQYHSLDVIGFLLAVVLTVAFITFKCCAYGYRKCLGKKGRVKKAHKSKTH
# CYP1A2 = CYP1A2 (Homo sapiens, UniProt P05177); experiment: enzyme inhibition, in vitro; assay type: in vitro ADME
# Sequence of CYP1A2 (P05177 whole entry): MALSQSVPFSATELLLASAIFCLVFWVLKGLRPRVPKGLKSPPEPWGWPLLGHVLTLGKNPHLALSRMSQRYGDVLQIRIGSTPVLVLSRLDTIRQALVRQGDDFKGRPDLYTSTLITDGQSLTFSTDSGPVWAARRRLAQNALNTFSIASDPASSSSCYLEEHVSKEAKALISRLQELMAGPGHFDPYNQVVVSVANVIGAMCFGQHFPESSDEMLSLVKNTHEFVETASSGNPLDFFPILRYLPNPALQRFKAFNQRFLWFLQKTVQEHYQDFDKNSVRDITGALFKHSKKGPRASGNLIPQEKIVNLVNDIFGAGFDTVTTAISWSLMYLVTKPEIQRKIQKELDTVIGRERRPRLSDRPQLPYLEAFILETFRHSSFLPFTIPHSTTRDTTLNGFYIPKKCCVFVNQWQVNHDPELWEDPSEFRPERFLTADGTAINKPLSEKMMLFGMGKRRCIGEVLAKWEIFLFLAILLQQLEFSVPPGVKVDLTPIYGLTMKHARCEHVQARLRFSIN
# [1] = phase I two-part drug-drug interaction study, plasma pharmacokinetics (Example 1); assay type: in vivo, human; details: for Cmax / Tmax / AUC from 0 to 24 h / AUC(0-inf) / AUC(0-t) / half-life: male, human, plasma, oral; for Tmax: read-out: Tmax, median (range)
# From the text: The secondary objective was to provide additional information on the safety and tolerability of this dose regimen in healthy males.
# This was a single center, non-randomized, DDI study in 35 (Part 1) and 38 (Part 2) healthy males. The key inclusion criterion was males aged 18 to 55 years (inclusive). […] In Part 2, co-administration with omeprazole was studied. The study design is illustrated in FIG. 1.
# At least a 2-to 8-day washout occurred between each period to account for a minimum of 5 half-lives of the active moieties dosed in the preceding period.
# Blood samples were collected into 6 mL K,EDTA tubes and were processed within 30 minutes of collection. The resultant plasma was then frozen within 90 minutes of collection and stored at […] until shipment to the bioanalytical laboratory.
# For each comparison, PK parameters were natural log transformed and analyzed using mixed effect modeling with treatment included as a fixed effect and subject as a random effect. Adjusted geometric mean ratios (GMRs) and corresponding 90% CIs were calculated.
# [2] = 200 mg belumosudil single dose + itraconazole
# [3] = 200 mg belumosudil single dose + rabeprazole
# [4] = 200 mg belumosudil single dose + rifampicin
# [5] = 200 mg belumosudil single dose alone
# [6] = coadministration of rabeprazole
# Sequence of P-gp (P08183 whole entry): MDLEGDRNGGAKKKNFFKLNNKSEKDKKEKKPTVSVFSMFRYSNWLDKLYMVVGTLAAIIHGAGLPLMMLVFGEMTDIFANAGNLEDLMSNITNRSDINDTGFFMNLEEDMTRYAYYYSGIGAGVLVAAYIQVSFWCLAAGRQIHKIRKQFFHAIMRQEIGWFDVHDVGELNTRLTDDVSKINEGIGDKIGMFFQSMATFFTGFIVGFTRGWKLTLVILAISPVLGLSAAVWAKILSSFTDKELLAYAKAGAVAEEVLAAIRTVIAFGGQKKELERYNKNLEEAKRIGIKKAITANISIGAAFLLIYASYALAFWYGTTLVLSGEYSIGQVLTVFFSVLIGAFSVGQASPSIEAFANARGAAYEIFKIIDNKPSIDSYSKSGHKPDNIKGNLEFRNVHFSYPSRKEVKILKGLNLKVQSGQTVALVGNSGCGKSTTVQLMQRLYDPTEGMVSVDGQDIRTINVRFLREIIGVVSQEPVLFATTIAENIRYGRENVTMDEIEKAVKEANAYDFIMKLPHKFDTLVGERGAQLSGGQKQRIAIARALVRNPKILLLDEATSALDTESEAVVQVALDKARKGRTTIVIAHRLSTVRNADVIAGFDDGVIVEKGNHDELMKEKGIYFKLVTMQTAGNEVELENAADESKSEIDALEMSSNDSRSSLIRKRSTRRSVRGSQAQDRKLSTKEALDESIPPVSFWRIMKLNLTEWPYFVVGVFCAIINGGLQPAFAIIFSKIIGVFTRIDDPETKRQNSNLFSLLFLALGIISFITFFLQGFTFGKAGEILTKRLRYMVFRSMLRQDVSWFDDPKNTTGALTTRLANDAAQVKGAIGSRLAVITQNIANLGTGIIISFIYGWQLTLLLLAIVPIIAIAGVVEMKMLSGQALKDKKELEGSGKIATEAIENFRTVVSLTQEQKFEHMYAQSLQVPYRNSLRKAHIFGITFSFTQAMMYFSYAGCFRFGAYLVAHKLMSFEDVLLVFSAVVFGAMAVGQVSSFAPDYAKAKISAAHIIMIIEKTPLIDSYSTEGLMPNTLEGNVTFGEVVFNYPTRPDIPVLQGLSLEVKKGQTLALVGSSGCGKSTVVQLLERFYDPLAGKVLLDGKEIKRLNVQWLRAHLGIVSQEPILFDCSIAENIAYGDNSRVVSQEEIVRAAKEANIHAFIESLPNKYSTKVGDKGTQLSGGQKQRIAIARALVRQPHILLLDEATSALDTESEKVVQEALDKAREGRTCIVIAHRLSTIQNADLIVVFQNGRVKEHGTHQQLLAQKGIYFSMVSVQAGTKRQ
structure (smiles),measurement,setting,value
"CC(C)NC(=O)COc1cccc(-c2nc(Nc3ccc4[nH]ncc4c3)c3ccccc3n2)c1 [Belumosudil, 2-{3-[4-(1H-indazol-5-ylamino)-2-quinazolinyl]phenoxy}-N-(propan-2-yl) acetamide]",P-gp substrate,P-gp,substrate
same,UGT1A9 inhibition,UGT1A9,inhibitor
same,CYP1A2 inhibition,CYP1A2,inhibitor
same,"CL/F, arithmetic mean (SD)",[1]; [2],318 (117) ^b mL/min
same,"CL/F, geometric mean (geometric CV %)",[1]; [2],298 (38.1) ^b; mL/min
same,"CL/F, arithmetic mean (SD)",[1]; [3],2480 (2410) ^d mL/min
same,"CL/F, geometric mean (geometric CV %)",[1]; [3],1980 (65.8) ^d; mL/min
same,"CL/F, arithmetic mean (SD)",[1]; [4],1400 (450) ^c mL/min
same,"CL/F, geometric mean (geometric CV %)",[1]; [4],1330 (34.5) ^c; mL/min
same,"CL/F, arithmetic mean (SD)",[1]; [5],385 (116) ^a mL/min
same,"CL/F, geometric mean (geometric CV %)",[1]; [5],367 (33.3) ^a; mL/min
same,change in belumosudil exposure,[1]; coadministration of itraconazole,no clinically meaningful effect; also recorded: No clinically relevant change
same,decrease in AUC0-24 vs belumosudil alone,[1]; coadministration of omeprazole,53%
same,decrease in AUC vs belumosudil alone,[1]; coadministration of omeprazole,47%
same,decrease in Cmax (first dose) vs belumosudil alone,[1]; coadministration of omeprazole,68%
same,decrease in AUC vs belumosudil alone,[1]; [6],80%
same,decrease in AUCinf vs belumosudil alone,[1]; [6],~80%
same,decrease in AUClast vs belumosudil alone,[1]; [6],~82%
same,decrease in AUCinf vs belumosudil alone,[1]; coadministration of rifampicin,~72%
same,decrease in AUClast vs belumosudil alone,[1]; coadministration of rifampicin,~72%
same,decrease in AUC vs belumosudil alone,[1]; coadministration of rifampin,72%
same,Cmax,"[1]; 200 mg belumosudil BID + omeprazole, first dose, read-out: Cmax, arithmetic mean (SD)",893 ng/mL
same,Cmax,"[1]; 200 mg belumosudil BID + omeprazole, first dose, read-out: Cmax, geometric mean (geometric CV %)",575 ng/mL
same,Tmax,"[1]; 200 mg belumosudil BID + omeprazole, first dose",4 h
same,Cmax,"[1]; 200 mg belumosudil BID + omeprazole, second dose, read-out: Cmax, arithmetic mean (SD)",1050 ng/mL
same,Cmax,"[1]; 200 mg belumosudil BID + omeprazole, second dose, read-out: Cmax, geometric mean (geometric CV %)",903 ng/mL
same,Tmax,"[1]; 200 mg belumosudil BID + omeprazole, second dose",17 h
same,AUC from 0 to 24 h,"[1]; 200 mg belumosudil BID + omeprazole, read-out: AUC0-24, arithmetic mean (SD)",9100 ng·h/mL
same,AUC from 0 to 24 h,"[1]; 200 mg belumosudil BID + omeprazole, read-out: AUC0-24, geometric mean (geometric CV %)",7970 ng·h/mL
same,AUC(0-inf),"[1]; 200 mg belumosudil BID + omeprazole, read-out: AUCinf, arithmetic mean (SD)",11200 ng·h/mL
same,AUC(0-inf),"[1]; 200 mg belumosudil BID + omeprazole, read-out: AUCinf, geometric mean (geometric CV %)",9880 ng·h/mL
same,AUC(0-t),"[1]; 200 mg belumosudil BID + omeprazole, read-out: AUClast, arithmetic mean (SD)",10900 ng·h/mL
same,AUC(0-t),"[1]; 200 mg belumosudil BID + omeprazole, read-out: AUClast, geometric mean (geometric CV %)",9680 ng·h/mL
same,half-life,"[1]; 200 mg belumosudil BID + omeprazole, read-out: t1/2, arithmetic mean (SD) (converted)",6.55 h
same,half-life,"[1]; 200 mg belumosudil BID + omeprazole, read-out: t1/2, geometric mean (geometric CV %) (converted)",6.16 h
same,AUC from 0 to 24 h,"[1]; 200 mg belumosudil single dose + itraconazole, read-out: AUC0-24, arithmetic mean (SD)",11000 ng·h/mL
same,AUC from 0 to 24 h,"[1]; 200 mg belumosudil single dose + itraconazole, read-out: AUC0-24, geometric mean (geometric CV %)",10400 ng·h/mL
same,AUC(0-inf),"[1]; 200 mg belumosudil single dose + itraconazole, read-out: AUCinf, arithmetic mean (SD)",11900 ng·h/mL
same,AUC(0-inf),"[1]; 200 mg belumosudil single dose + itraconazole, read-out: AUCinf, geometric mean (geometric CV %)",11200 ng·h/mL
same,AUC(0-t),"[1]; 200 mg belumosudil single dose + itraconazole, read-out: AUClast, arithmetic mean (SD)",11600 ng·h/mL
same,AUC(0-t),"[1]; 200 mg belumosudil single dose + itraconazole, read-out: AUClast, geometric mean (geometric CV %)",10900 ng·h/mL
same,Cmax,"[1]; 200 mg belumosudil single dose + itraconazole, read-out: Cmax, arithmetic mean (SD)",2230 ng/mL
same,Cmax,"[1]; 200 mg belumosudil single dose + itraconazole, read-out: Cmax, geometric mean (geometric CV %)",2130 ng/mL
same,Tmax,[1]; [2],3 h
same,half-life,"[1]; 200 mg belumosudil single dose + itraconazole, read-out: t1/2, arithmetic mean (SD) (converted)",8.79 h
same,half-life,"[1]; 200 mg belumosudil single dose + itraconazole, read-out: t1/2, geometric mean (geometric CV %) (converted)",8.27 h
same,AUC from 0 to 24 h,"[1]; 200 mg belumosudil single dose + rabeprazole, read-out: AUC0-24, arithmetic mean (SD)",1730 ng·h/mL
